≈ marks a conversion by molar mass, not a printed value. Where “and” joins values, the source holds several entries; their conditions need not be identical. Equal entries are not always repeated.
Experiments:
[1] = tested on: carcinogenic cell lines; assay: Flow cytometric analysis of apoptosis and necrosis (Apoptosis, Necrosis and Healthy Cell Quantitation Kit Plus); type: cell-based; details: IC50 concentration, 24-h incubation
[2] = tested on: healthy mouse fibroblast cell (NIH3T3); assay: MTT cytotoxicity test on healthy cells; type: cell-based; details: 24-h treatment, means of quartet assays ± SEM
Method: (§1) The MTT test was performed using 3 different cell lines for calculated IC50 values of obtained compounds. […] For this purpose, the cytotoxic effects of the compounds against the healthy mouse fibroblast cell (NIH3T3) were investigated.
(§2) The 3-(4,5-dimethylthiazol-2-yl)-2,5-diphenyltetrazolium salt reduction method, or MTT assay, is used to measure the metabolic activity of live cells. […] Doxorubicin is used as a therapeutic drug. MTT assays were carried out as previously explained.[19]

[3] = tested on: S. epidermidis (ATCC 12228); assay: Antibacterial activity, MIC50 by resazurin fluorometric measurement; type: cell-based, Staphylococcus epidermidis
Method: (§3) Obtained compounds (2a–2j) were evaluated for antibacterial activity against Escherichia coli (E. coli) (ATCC 25922), Pseudomonas aeruginosa (P. aeruginosa) (ATCC 27853), […] (E. faecalis) (ATCC 2942), Bacillus subtilis (B. subtilis) (ATCC 6051), Staphylococcus aureus (S. aureus) (ATCC 29213), and Staphylococcus epidermidis (S. epidermidis) (ATCC 12228). MIC50 values were determined via fluorometric measurements, using resazurin solution.[13] Azithromycin was used as a standard drug in the antibacterial activity test.
(§4) The antimicrobial activity of obtained derivatives (2a–2j) was screened on six bacterial and three fungal strains according to the standard procedure of CLSI[20] as described in the previous study.[21] The antibacterial activities of the obtained compounds were screened against B. subtilis (ATCC 6051), E. coli (ATCC 25922), E. faecalis (ATCC 2942), P. aeruginosa (ATCC 27853), S. aureus (ATCC 29213), and S. epidermidis (ATCC 12228). The obtained compounds were evaluated for anticandidal activity against C. albicans (ATCC 24433), C. krusei (ATCC 6258), and C. parapsilopsis (ATCC 22019). For antibacterial activity, azithromycin was utilized as a reference drug, whereas voriconazole and fluconazole were used for anticandidal activity.

[4] = tested on: A549 cell line; assay: Analysis of mitochondrial membrane potential (MMP) by flow cytometry, JC-1 dye; type: cell-based; details: A549, IC50 concentration, 24-h incubation
Method: After a 24-h incubation period, mitochondrial membrane potential was measured with JC-1 dye.
The BD Mitoscreen Mitochondrial Membrane Potential Detection JC-1 Kit (available from ref ([23])) was used for the MMP test. First, A549 cells were seeded in 25 mL flasks and incubated for 24 h in a 5% CO2 incubator. […] At the end of this period, cells were collected and centrifuged in accordance with the kit contents. After the upper part was removed, JC-1 dye was added and incubated at 37 °C for 10–15 min. At the end of the period, it was washed 2 times with washing solution and reading was done with the appropriate procedure using the CytoFLEX Flow Cytometer (Beckman Coulter Life Sciences, USA) and CytExpert for CytoFLEX Acquisition and Analysis Software Version 2.2.0.97.

[5] = tested on: HepG2 cell line; assay: MTT cytotoxicity test; type: cell-based; details: Homo sapiens, 24-h treatment, means of quartet assays ± SEM
Method: as §1, §2

[6] = tested on: A549 cell line; assay: MTT cytotoxicity test; type: cell-based; details: for IC50: MTT, 24-h treatment, means of quartet assays ± SEM
Method: as §1, §2

[7] = tested on: carcinogenic cell lines; assay: Flow cytometric analysis of apoptosis and necrosis (Apoptosis, Necrosis and Healthy Cell Quantitation Kit Plus); type: cell-based; details: IC50 concentration, 24-h incubation; remark: listed apart in the source
Description: The flow cytometer was used to calculate the percentages of apoptotic and necrotic cells in four different quadrants, which are denoted by the letters “UL, UR, LL, LR” (Upper Left, Upper Right, Lower Left, Lower Right). The four distinct quadrants in the diagram represent the following areas, respectively: Apoptotic or early apoptotic cells, LR: CF488A+/(EthD-III)-; necrotic or late apoptotic cells, […]: CF488A+/(EthD-III)+; intact cells, LL: CF488A/(EthD-III); and dead or necrotic cells, UR: CF488A+/(EthD-III)+. The IC50 concentration of each substance was used in administration.
Death pathway of the carcinogenic cell lines was detected by Apoptosis, Necrosis and Healthy Cell Quantitation Kit Plus (Cat: 30066, Biotium, Hayward, CA, USA)[22] as reported in the manufacturer’s instruction. The IC50 values for doxorubicin and compound 2j were applied. Cells were collected by centrifugation at 1200 rpm for 5 min following a 24-h incubation period. It was washed 2 times with PBS, centrifuged and turned into pellets. One ×10^6 cells/mL of annexin were suspended in V-FITC binding buffer. Ethidium iodide ([…]), Hoestch 1 mL, and annexin V-FITC ([…]) were added to stain cells and using the CytoFLEX Flow Cytometer (Beckman Coulter Life Sciences, USA) and CytExpert for CytoFLEX Acquisition and Analysis Software Version 2.2.0.97 instrument. Fluorescence measurements were made using a flow cytometer in accordance with the instrument procedure.

[8] = tested on: E. coli (ATCC 25922); assay: Antibacterial activity, MIC50 by resazurin fluorometric measurement; type: cell-based; details: Escherichia coli, ATCC25922; means of triplicate assays
Method: as §3, §4

[9] = tested on: B. subtilis (ATCC 6051); assay: as above; type: cell-based; details: Bacillus subtilis, ATCC6051; means of triplicate assays
Method: as §3, §4

[10] = tested on: P. aeruginosa (ATCC 27853); assay: as above; type: cell-based; details: Pseudomonas aeruginosa, ATCC27853; means of triplicate assays
Method: as §3, §4

[11] = tested on: E. faecalis (ATCC 2942); assay: as above; type: cell-based, Enterococcus faecalis
Method: as §3, §4

[12] = tested on: C. krusei (ATCC 6258); assay: Anticandidal activity, MIC50 by resazurin fluorometric measurement; type: cell-based, Candida krusei
Method: (§5) Obtained compounds (2a–2j) were evaluated for anticandidal activity against Candida albicans (C. albicans) (ATCC 24433), Candida krusei (C. krusei) (ATCC 6258), and Candida parapsilopsis (C. parapsilopsis) (ATCC 22019). MIC50 values were determined via fluorometric measurements, using resazurin solution.[13] Voriconazole and fluconazole were used as a standard drug in the anticandidal activity test. […] In general, it is seen that the 2-methoxyethyl substituent increases the anticandidal activity.
as §4

[13] = target: T1, VEGFR-2 enzyme (Homo sapiens, UniProt P35968); assay: VEGFR-2 inhibition assay (VEGFR-2 Kinase Assay Kit); type: biochemical; details: serial 11 dilutions, 1000 μM–0.01 μM
T1 construct: purchased
Method: The VEGFR-2 Kinase Assay Kit (Available from ref ([15])) was used for the VEGFR-2 inhibition. The experiment was performed in vitro according to the kit procedure. Serial 11 dilutions of compound 2j were prepared at concentrations of 1000 μM–0.01 μM. The IC50 value for compound 2j was calculated using the kit procedure.
The VEGFR-2 Kinase Assay Kit (available from ref ([15])) was used for the VEGFR-2 inhibition. The experiment was performed in vitro according to the kit procedure.

[14] = tested on: C. albicans (ATCC 24433); assay: Anticandidal activity, MIC50 by resazurin fluorometric measurement; type: cell-based, Candida albicans
Method: as §5, §4

[15] = tested on: C. parapsilopsis (ATCC 22019); assay: as above; type: cell-based, Candida parapsilopsis; details: Candida, ATCC22019; means of triplicate assays
Method: as §5, §4

[16] = tested on: S. aureus (ATCC 29213); assay: Antibacterial activity, MIC50 by resazurin fluorometric measurement; type: cell-based, Staphylococcus aureus
Method: as §3, §4

T1 sequence (P35968 20-1356): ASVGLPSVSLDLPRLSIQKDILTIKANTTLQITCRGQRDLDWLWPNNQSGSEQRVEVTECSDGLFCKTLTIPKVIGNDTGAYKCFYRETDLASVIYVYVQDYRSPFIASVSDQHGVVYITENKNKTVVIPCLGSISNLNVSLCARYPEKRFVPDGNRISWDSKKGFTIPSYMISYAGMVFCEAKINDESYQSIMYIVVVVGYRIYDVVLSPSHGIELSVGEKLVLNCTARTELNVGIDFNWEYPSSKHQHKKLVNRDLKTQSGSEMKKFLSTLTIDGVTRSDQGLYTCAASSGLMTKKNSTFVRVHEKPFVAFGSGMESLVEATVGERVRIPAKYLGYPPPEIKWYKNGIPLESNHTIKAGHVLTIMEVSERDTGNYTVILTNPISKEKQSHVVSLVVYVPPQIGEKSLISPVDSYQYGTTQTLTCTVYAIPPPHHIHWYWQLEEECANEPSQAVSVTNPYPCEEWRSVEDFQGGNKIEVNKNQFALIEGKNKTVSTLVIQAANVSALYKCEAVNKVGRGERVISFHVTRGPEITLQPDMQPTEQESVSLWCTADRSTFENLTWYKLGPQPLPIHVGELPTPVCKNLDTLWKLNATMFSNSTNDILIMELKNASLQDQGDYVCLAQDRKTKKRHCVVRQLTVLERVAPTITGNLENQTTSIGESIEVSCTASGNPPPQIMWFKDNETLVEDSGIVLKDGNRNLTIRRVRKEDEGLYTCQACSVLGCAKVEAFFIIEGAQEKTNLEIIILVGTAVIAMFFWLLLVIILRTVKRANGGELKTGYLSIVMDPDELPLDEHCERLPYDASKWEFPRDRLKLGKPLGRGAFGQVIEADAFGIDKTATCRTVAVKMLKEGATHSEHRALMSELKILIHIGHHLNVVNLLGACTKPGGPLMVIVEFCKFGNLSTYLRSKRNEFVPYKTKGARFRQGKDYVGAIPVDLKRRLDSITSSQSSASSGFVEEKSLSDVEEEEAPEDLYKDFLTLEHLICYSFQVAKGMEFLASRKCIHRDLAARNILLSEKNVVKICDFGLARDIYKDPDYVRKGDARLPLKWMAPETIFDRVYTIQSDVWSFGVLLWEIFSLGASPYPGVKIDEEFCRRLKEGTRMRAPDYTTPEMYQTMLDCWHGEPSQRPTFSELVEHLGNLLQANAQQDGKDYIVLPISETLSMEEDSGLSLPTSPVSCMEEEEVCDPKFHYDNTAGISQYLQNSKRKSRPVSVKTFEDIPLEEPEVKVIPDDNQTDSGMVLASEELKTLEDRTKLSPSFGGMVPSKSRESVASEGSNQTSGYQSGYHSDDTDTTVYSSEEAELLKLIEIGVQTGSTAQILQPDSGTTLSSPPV

COCCN1CCN(c2ccc(C(=O)C=Cc3ccc4ccccc4c3)cc2)CC1 [2j, 1-(4-(4-(2-Methoxyethyl)piperazin-1-yl)phenyl)-3-(naphthalen-2-yl)prop-2-en-1-one]
late apoptosis (Q1-UR) [1]: 10.26% and 10.3% | IC50 [2]: 15.6 ± 0.75 µM | MIC50 ([3]; Staphylococcus epidermidis, ATCC12228, means of triplicate assays, read-out: MIC50 S. epidermis): 31.2 µg/mL (≈ 78 µM) | MIC50 S. epidermis ([3]; means of triplicate assays): 31.3 µg/mL (≈ 78.1 µM) | mitochondrial membrane potential (P3) [4]: 58.870% | IC50 [5]: 38.9 ± 1.34 µM | IC50 ([6]; Homo sapiens, A549, 24 h): < 10 µM | IC50 [6]: 7.8 µM and 7.83 µM | selectivity index (IC50 value vs healthy cell/IC50 value vs cancer cell) ([6]; NIH3T3 vs A549 cell line): 1.990 | early apoptosis (Q1-LR) [7]: 3.97% | intact cells (Q1-LL) [7]: 67.71% | necrosis (Q1-UL) [7]: 18.06% and 18.1% | rate of apoptosis (early + late apoptosis) [7]: 14.230% and 14.2% | MIC50 [8]: > 100 µg/mL | MIC50 [9]: > 100 µg/mL | MIC50 [10]: 62.5 µg/mL (≈ 156 µM) | MIC50 ([11]; Enterococcus faecalis, ATCC2942, means of triplicate assays): 15.6 µg/mL (≈ 38.9 µM) | MIC50 E. faecalis ([11]; means of triplicate assays): 15.7 µg/mL (≈ 39.2 µM) | MIC50 ([12]; Pichia kudriavzevii, ATCC6258, means of triplicate assays): 15.6 µg/mL (≈ 39 µM) | MIC50 C. krusei ([12]; means of triplicate assays): 15.6 µg/mL (≈ 38.9 µM) | IC50 [13]: 98 ± 5 nM | MIC50 ([14]; Candida albicans, ATCC24433, means of triplicate assays): 15.6 µg/mL (≈ 39 µM) | MIC50 C. albicans ([14]; means of triplicate assays): 15.6 µg/mL (≈ 38.9 µM) | MIC50 [15]: > 100 µg/mL | MIC50 ([16]; Staphylococcus aureus, ATCC29213, means of triplicate assays): 31.2 µg/mL (≈ 78 µM) | MIC50 S. aureus ([16]; means of triplicate assays): 31.3 µg/mL (≈ 78.1 µM)

Reference: article PMC9947975, “Design, Synthesis, and Biological Evaluation Studies of Novel Naphthalene-Chalcone Hybrids As Antimicrobial, Anticandidal, Anticancer, and VEGFR-2 Inhibitors” (ACS Omega, 2023)
